Source: ChEMBL document CHEMBL1201862, “PubChem BioAssay data set” (2004)
Activity calls are given as the source filed them.

Columns and labels:
Fatty acid synthase [1] = molecular target: T1, Fatty acid synthase (Homo sapiens, UniProt P49327); experiment: FAS thioesterase domain inhibitors, dose response, biochemical, endpoint fluorescence intensity, uHTS hits (AID 624327); assay type: functional;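 further: fluorescence from hydrolysis of an O-methyl fluorescein acyl ester substrate by the enzyme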
Fatty acid synthase [2] = molecular target: T1, Fatty acid synthase; experiment: FAS thioesterase domain inhibitors, dose response, biochemical, kinetic fluorescence intensity (AID 624326); assay type: functional;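 further: rate of fluorescence rise from hydrolysis of a fluorogenic O-methyl fluorescein ester substrate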
Prothrombin = Prothrombin (Homo sapiens, UniProt P00734); experiment: Thrombin 1536 HTS Dose Response Confirmation. [Related pubchem assays: 1046 (Thrombin 1536 HTS; hits were confirmed in this assay)]; assay type: functional
Caspase-3 = molecular target: T2, Caspase-3 (Homo sapiens, UniProt P42574); assay type: functional;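 further: Dose-response selectivity test against caspase-3 for candidate inhibitors of sentrin-specific proteases (SENPs)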
T2 sequence (P42574 whole entry): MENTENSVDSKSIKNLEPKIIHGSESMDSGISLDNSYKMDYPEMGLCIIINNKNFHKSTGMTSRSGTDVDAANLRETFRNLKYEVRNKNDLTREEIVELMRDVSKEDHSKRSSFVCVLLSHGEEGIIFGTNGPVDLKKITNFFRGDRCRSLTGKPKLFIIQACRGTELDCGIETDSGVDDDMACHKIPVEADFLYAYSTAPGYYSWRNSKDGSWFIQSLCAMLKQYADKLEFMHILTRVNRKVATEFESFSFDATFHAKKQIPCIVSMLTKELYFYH

[3] = molecular target: T3, Sentrin-specific protease 7 (Homo sapiens, UniProt Q9BQF6); assay type: functional;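 further: Luminescence-based dose-response confirmation of ultra-high-throughput screening hits, measuring inhibition of SENP7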
T3 sequence (Q9BQF6 whole entry): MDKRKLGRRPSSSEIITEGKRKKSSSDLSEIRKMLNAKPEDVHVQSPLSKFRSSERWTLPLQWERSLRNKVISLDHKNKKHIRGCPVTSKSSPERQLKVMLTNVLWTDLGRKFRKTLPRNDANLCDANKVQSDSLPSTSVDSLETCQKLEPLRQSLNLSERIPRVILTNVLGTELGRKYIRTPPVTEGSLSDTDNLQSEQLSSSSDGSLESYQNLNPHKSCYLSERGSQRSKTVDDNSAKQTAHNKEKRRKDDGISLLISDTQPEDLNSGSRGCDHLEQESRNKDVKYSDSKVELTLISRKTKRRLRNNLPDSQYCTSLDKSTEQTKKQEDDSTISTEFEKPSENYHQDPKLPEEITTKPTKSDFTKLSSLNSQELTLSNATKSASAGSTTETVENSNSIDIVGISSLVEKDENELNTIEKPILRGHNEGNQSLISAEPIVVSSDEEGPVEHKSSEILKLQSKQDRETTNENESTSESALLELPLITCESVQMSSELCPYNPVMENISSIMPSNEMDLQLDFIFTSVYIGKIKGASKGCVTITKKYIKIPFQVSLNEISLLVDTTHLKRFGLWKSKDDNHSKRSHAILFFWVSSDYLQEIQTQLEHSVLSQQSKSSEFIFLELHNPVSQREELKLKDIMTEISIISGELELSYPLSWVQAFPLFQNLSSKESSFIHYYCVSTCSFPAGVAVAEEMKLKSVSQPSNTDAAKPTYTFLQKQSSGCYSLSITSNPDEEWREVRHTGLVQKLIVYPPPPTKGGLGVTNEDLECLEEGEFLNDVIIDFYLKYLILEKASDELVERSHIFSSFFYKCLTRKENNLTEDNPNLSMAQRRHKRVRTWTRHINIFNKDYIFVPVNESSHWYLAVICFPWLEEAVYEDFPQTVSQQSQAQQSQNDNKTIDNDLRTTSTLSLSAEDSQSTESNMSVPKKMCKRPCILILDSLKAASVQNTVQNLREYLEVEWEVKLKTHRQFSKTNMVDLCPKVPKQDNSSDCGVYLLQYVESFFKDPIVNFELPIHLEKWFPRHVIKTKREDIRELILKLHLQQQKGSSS

[4] = molecular target: T4, Sentrin-specific protease 6 (Homo sapiens, UniProt Q9GZR1); assay type: functional;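 further: Luminescence-based dose-response confirmatory assay of SENP6 inhibition, following up an ultra-high-throughput screen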
T4 sequence (Q9GZR1 whole entry): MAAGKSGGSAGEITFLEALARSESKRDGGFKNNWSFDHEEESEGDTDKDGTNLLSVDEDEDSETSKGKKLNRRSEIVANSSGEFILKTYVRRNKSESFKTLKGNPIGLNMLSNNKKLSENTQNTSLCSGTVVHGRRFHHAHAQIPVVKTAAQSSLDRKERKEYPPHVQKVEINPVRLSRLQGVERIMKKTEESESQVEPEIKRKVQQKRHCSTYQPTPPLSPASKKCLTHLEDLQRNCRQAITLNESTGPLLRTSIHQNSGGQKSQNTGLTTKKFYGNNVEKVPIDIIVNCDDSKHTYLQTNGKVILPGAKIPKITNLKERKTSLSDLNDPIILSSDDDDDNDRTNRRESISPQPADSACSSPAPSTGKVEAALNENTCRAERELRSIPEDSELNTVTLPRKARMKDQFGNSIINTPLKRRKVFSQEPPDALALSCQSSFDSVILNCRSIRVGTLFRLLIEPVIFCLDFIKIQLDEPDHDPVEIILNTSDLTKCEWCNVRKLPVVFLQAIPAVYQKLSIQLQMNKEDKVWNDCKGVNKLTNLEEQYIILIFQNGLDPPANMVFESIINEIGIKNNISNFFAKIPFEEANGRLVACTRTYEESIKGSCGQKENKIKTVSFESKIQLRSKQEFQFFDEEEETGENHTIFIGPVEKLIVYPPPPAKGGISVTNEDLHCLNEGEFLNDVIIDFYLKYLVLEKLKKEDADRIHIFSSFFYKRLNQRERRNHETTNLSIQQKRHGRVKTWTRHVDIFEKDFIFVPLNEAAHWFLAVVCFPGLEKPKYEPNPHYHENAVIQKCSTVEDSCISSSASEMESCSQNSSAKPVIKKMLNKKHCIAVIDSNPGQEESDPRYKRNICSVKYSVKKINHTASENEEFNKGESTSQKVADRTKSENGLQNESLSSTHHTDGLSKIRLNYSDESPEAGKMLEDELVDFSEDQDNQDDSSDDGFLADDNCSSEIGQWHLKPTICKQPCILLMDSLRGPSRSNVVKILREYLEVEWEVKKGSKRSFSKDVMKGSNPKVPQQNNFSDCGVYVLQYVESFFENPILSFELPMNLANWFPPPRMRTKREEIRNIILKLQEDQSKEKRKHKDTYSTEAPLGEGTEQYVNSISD

[5] = molecular target: T5, Sentrin-specific protease 8 (Homo sapiens, UniProt Q96LD8); assay type: functional;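 further: luminescence read-out of SENP8 inhibition, dose-response confirmation following an ultra-high-throughput screen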
T5 sequence (Q96LD8 whole entry): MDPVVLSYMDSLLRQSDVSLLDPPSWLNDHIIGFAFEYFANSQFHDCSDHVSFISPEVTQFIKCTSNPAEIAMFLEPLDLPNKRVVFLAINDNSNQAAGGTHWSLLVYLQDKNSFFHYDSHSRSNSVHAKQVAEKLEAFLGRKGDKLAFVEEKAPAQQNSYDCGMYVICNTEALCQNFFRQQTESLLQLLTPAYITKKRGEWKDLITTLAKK

Caspase-6 = molecular target: T6, Caspase-6 (Homo sapiens, UniProt P55212); experiment: human caspase-6 inhibitors, dose response, biochemical, VEID-R110 fluorescence, cherry-pick (AID 720632)
T6 sequence (P55212 whole entry): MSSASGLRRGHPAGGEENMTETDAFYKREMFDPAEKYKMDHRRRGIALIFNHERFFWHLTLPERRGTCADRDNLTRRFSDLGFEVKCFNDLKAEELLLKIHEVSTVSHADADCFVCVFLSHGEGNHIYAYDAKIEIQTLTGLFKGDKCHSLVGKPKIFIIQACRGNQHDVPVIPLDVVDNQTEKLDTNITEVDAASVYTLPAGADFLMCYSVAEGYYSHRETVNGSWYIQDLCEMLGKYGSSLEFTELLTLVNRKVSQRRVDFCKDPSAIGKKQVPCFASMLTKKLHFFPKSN

[6] = system: Streptococcus sp. 'group A'; experiment: growth inhibition of control SK(-) GAS strain, dose response, counter-screen for streptokinase expression inhibitor project, luminescence, kanamycin, BacTiterGlo, confirmation (AID 1900); assay type: functional, organism-based
Streptokinase A = molecular target: T7, Streptokinase A (Streptococcus pyogenes serotype M1, UniProt P10520); experiment: S. pyogenes streptokinase expression inhibitors, potency, dose response, plasminogen activation absorbance, OD405 (AID 1914); assay type: functional, Streptococcus pyogenes M1 GAS;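 further: secreted streptokinase activity via plasminogen activation per viability signal from cell pellet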
T7 sequence (P10520 whole entry): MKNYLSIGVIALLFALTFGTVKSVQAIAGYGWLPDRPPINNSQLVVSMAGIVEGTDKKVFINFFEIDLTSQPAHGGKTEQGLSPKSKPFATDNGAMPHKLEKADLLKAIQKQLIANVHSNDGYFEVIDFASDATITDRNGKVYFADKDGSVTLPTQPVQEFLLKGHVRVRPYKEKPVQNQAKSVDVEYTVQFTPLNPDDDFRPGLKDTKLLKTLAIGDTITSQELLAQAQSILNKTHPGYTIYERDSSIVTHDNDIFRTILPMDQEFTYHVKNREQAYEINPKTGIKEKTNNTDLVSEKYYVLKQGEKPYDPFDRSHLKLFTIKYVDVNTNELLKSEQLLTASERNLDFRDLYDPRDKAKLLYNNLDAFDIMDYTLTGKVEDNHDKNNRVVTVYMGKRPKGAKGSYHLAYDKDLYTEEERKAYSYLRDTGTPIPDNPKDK

Streptococcus = experiment: Group A Streptococcus viability loss, dose response, counter-screen for streptokinase expression inhibitor project, luminescence, BacTiterGlo (AID 1915); assay type: functional, organism-based;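 further: potency for reduction of bacterial viability or growth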
BJ [7] = experiment: cytotoxicity toward Ras-transformed BJeLR fibroblasts, dose response, cell-based, alamar blue fluorescence, cherrypicked samples (AID 2631); assay type: functional; conditions: Homo sapiens;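 further: confirmatory dose-response assay in RAS-dependent BJ fibroblasts engineered with TERT, LT and ST, with cytotoxicity read by fluorescence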
BJ [8] = experiment: cytotoxicity toward BJ-TERT fibroblasts, dose response, cell-based, RAS-independent, luminescence (AID 1933); assay type: functional; conditions: Homo sapiens
BJ [9] = experiment: cells; assay type: functional, cell-based; conditions: Homo sapiens
BJ [10] = experiment: cytotoxicity toward BJ-TERT-LT-ST fibroblasts, dose response, cell-based, RAS-independent, luminescence (AID 1935); assay type: functional; conditions: Homo sapiens;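 further: BJ fibroblasts immortalized with TERT plus LT and ST oncogenes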
[11] = cytotoxicity toward DRD oncogenic fibroblasts, dose response, cell-based, non-viral oncogenic, luminescence (AID 1934); assay type: functional; conditions: Homo sapiens

T1 sequence (P49327 whole entry, the tested form may be a part): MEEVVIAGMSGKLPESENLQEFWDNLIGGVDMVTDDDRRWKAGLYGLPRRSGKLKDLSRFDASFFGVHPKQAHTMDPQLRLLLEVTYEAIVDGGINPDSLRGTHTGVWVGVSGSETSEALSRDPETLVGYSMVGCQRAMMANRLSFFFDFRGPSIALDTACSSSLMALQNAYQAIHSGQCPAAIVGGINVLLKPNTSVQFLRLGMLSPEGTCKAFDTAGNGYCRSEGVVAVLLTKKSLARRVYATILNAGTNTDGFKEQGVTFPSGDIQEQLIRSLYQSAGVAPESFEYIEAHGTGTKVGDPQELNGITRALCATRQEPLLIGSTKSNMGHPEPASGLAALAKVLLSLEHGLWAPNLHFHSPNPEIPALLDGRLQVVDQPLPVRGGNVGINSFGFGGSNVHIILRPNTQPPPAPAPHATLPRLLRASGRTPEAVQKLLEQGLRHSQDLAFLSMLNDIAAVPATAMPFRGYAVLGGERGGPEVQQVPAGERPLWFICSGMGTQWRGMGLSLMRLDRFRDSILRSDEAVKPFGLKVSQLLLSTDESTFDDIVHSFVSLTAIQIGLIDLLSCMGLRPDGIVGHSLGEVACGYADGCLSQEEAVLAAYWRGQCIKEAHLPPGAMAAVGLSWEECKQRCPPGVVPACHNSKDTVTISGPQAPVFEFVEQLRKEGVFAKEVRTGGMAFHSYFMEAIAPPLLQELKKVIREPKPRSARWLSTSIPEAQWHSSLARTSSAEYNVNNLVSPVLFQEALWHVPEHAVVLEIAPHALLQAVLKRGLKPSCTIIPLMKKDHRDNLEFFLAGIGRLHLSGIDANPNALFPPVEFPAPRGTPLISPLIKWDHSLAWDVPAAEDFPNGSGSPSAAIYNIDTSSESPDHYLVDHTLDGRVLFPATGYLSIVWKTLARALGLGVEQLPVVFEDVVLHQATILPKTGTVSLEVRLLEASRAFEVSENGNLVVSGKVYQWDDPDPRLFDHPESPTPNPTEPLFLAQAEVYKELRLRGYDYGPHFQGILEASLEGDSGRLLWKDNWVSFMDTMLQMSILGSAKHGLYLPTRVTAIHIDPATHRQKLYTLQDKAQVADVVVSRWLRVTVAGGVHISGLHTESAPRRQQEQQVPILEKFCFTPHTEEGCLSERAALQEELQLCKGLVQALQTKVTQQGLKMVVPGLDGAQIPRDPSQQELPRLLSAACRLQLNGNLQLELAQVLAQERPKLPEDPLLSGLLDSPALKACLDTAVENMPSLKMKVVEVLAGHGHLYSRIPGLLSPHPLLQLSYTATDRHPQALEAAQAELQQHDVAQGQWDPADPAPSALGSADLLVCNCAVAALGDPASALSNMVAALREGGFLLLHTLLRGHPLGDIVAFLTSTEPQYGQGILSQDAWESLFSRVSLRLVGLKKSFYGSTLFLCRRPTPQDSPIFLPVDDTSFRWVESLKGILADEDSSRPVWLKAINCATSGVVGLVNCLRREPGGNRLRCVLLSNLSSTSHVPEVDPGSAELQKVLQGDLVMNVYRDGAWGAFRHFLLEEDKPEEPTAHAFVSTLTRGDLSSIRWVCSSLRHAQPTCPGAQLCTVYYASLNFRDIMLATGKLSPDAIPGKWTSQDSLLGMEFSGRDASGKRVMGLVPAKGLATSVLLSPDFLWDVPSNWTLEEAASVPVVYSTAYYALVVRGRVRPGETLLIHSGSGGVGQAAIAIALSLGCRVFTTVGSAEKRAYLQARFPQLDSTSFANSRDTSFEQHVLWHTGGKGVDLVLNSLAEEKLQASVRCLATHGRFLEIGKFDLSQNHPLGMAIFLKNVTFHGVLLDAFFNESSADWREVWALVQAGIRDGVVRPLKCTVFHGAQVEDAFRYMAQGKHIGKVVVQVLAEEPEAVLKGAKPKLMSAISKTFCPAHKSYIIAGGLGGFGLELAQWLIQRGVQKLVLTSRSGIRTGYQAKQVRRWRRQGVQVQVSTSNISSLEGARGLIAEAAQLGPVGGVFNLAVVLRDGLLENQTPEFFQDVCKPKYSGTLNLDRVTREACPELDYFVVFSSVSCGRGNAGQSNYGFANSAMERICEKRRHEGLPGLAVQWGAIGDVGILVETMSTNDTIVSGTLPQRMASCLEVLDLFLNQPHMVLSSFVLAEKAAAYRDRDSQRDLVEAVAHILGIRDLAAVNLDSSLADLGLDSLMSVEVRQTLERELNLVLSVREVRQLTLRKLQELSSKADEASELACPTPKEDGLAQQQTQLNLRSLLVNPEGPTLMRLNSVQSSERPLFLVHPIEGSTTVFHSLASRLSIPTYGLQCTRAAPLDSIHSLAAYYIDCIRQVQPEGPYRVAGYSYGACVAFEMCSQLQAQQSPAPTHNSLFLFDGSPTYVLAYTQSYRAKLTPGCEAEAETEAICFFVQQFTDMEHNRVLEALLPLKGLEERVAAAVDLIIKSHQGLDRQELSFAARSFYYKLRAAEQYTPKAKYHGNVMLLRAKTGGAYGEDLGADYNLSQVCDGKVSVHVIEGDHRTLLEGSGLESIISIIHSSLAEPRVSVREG

Compound: CC1CCc2c(sc3nc(CN4CCN(S(=O)(=O)c5ccccc5[N+](=O)[O-])CC4)nc(O)c23)C1 (stereo not drawn)
- IC50 (Fatty acid synthase [1]): 4.32 µM (active)
- IC50 (Fatty acid synthase [2]): 4.55 µM (active)

Compound: Cc1ccc([N+](=O)[O-])cc1S(=O)(=O)Nc1ccc(-c2ccc(N3CCCC3)nn2)cc1
- IC50 (Fatty acid synthase [1]): 13.7 µM (active)
- IC50 (Fatty acid synthase [2]): 8.02 µM (active)

Compound: O=C(NNC(=O)C(c1ccccc1)c1ccccc1)c1cccs1
- IC50 (Prothrombin): > 50 µM (not active)

Compound: CCOC(=O)c1c(NC(=O)CSc2nnc(-c3ccccc3C)n2C)sc(C(C)=O)c1C
- IC50 (Fatty acid synthase [1]): 9.71 µM (active)
- IC50 (Fatty acid synthase [2]): 3.03 µM (active)

Compound: CCC(=O)n1nc(-c2ccco2)nc1SCc1ccccc1
- IC50 (Prothrombin): 0.00342 µM (active)

Compound: CCOc1ccc(/C=C2\CCc3ccccc3C2=O)cc1
- IC50 (Caspase-3): 1.5 µM (active)
- IC50 [3]: 1.22 µM (active)
- IC50 [4]: 1.42 µM (active)
- IC50 [5]: 1.88 µM (active)

Compound: CCOC(=O)c1ccc(-c2ccc3c(c2)CCC3)nc1C
- IC50 (Caspase-3): 22.8 µM (active)
- IC50 [3]: 6.3 µM (active)
- IC50 [4]: 26.3 µM (active)
- IC50 [5]: 45.2 µM (active)

Compound: O=C(CCC(=O)Nc1ccc(F)cc1)N/N=C/c1cc([N+](=O)[O-])ccc1O
- IC50 (Fatty acid synthase [1]): 22.6 µM (inactive)
- IC50 (Fatty acid synthase [2]): 15.1 µM (active)

Compound: CC(C)(C)NC(=O)NC(=O)COC(=O)C1CCN(S(=O)(=O)c2cccs2)CC1
- IC50 (Fatty acid synthase [1]): 12.8 µM (active)
- IC50 (Fatty acid synthase [2]): 9.75 µM (active)

Compound: CC(Sc1nnc(-c2cc3ccccc3o2)n1-c1ccccc1)C(=O)O (stereo not drawn)
- IC50 (Prothrombin): > 50 µM (not active)

Compound: Cc1ccccc1CN1[C@@H](C)[C@H](c2ccccc2)Oc2cccc(NCC(C)C)c2S1(=O)=O
- AC50 (Caspase-6): 23.3 µM (active)

Compound: Cc1ccccc1S(=O)(=O)N1[C@@H]2CNC[C@H]1[C@@H]2c1ccc(-c2ccc(C#N)cc2)cc1
- AC50 (Caspase-6): 30.9 µM (active)

Compound: O=C(c1ccc2c3n(nc2c1)-c1ccccc1CO3)N1CCCCC1
- EC50 [6]: 11.9 µM (active)
- EC50 (Streptokinase A): > 150 µM (not active)
- EC50 (Streptococcus): 30.6 µM (active)
- EC50 (BJ [7]): > 133 µM (inactive)

Compound: CCC12CCCN3CCc4c(n(c5ccccc45)C(O)(C(=O)OC)C1)C32 (stereo not drawn)
- AC50 (Caspase-6): 21.7 µM (active)

Compound: Cc1ccc(C(=O)Nc2ccc3c(c2)OCO3)cc1Cl
- IC50 (Caspase-3): 13.4 µM (active)
- IC50 [3]: 5.94 µM (active)
- IC50 [4]: > 100 µM (inactive)
- IC50 [5]: > 100 µM (inactive)

Compound: O=C(CCCCCCCCCCC(=O)NCc1cccnc1)NCc1cccnc1
- EC50 (BJ [8]): > 75 µM (not active)
- EC50 (BJ [9]): 1.85 µM (inconclusive)
- EC50 (BJ [10]): > 150 µM (inconclusive)
- EC50 [11]: > 150 µM (not active)
- EC50 (BJ [7]): > 133 µM (inactive)

Compound: COc1cc(CNc2nc(C)c([N+](=O)[O-])c(C)c2C#N)cc(OC)c1OC
- IC50 (Fatty acid synthase [1]): 61.3 µM (inactive)
- IC50 (Fatty acid synthase [2]): 80 µM (inactive)

Compound: CC(C)Oc1ccc2c(=O)c(-c3ccccc3)coc2c1 [IPRIFLAVONE]
- IC50 (Caspase-3): 19.7 µM (active)
- IC50 [3]: 5.35 µM (active)
- IC50 [4]: 57.2 µM (active)
- IC50 [5]: 94.8 µM (active)

Compound: O=C(Nc1nnc(C(F)(F)F)s1)c1ccc(Br)s1
- IC50 (Caspase-3): 18.8 µM (active)
- IC50 [3]: 15.5 µM (active)
- IC50 [4]: 22.6 µM (active)
- IC50 [5]: 24.1 µM (active)

Compound: COc1ccccc1NC(=O)CCS(=O)(=O)c1ccccc1
- IC50 (Prothrombin): > 50 µM (not active)
